Key:
Type in all cases: biochemical
hABHD12 [1] = biological target: T1, hABHD12 (Homo sapiens, UniProt Q8N2K0); assay: Fluorescent glycerol assay of 1-AG hydrolysis in hABHD12-HEK293 lysates; conditions: for Emax: read-out: max inhibition (converted)
T1 construct: expressed in transfected cells; host or cells: HEK293 (transient)
T1 sequence (Q8N2K0 1-398): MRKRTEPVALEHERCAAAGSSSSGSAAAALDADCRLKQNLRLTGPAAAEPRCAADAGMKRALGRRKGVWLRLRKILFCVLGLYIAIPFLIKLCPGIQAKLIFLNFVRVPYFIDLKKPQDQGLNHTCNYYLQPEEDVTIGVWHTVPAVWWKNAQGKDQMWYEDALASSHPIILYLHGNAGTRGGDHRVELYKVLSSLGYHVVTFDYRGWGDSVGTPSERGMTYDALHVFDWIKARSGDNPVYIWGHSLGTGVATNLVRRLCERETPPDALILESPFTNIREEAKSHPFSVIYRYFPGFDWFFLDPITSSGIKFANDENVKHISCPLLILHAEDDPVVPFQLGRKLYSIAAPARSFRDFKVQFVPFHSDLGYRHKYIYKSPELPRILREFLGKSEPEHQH
Procedure: (§1) Glycerol liberated from 1-AG hydrolysis was determined with a sensitive fluorescent assay using lysates of HEK293 cells with transient overexpression of hABHD12, hABHD6 or hMAGL, essentially as previously described. […] Fluorescence (λex 530; λem 590 nm) was monitored using a Tecan Infinite M200 plate reader (Tecan Group Ltd., Männedorf, Switzerland). Inhibitory activities of selected compounds towards FAAH were determined using membranes of hFAAH overexpressing COS-7 cells, essentially as previously described. The final incubation volume (100 µL) contained 1 µg of protein and the substrate concentration was 20 µM (10 nM of ^3H-anandamide having specific activity of 60 Ci/mmol and concentration of 1 mCi/mL).

hABHD6 = biological target: T2, hABHD6 (Homo sapiens, UniProt Q9BV23); assay: Fluorescent glycerol assay in hABHD6-HEK293 lysates; conditions: for remaining activity at 10 µM: NI = no inhibition at 10 µM, read-out: hABHD6 Remaining activity % control ± s.e.m (n=3)
T2 construct: expressed in transfected cells; host or cells: HEK293 (transient)
T2 sequence (Q9BV23 1-337): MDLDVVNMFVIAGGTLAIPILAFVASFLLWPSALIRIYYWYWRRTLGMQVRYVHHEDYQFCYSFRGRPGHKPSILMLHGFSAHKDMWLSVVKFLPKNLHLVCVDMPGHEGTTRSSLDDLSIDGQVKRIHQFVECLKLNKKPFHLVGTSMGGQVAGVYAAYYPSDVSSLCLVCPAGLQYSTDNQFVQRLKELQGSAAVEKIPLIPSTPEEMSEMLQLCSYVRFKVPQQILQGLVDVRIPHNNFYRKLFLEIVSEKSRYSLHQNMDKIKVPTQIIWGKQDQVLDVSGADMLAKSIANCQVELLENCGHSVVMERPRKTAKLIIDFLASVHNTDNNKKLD
Procedure: as §1

hMAGL = biological target: T3, hMAGL (Homo sapiens, UniProt Q99685); assay: Fluorescent glycerol assay in hMAGL-HEK293 lysates; conditions: for remaining activity at 10 µM: read-out: hMAGL Remaining activity % control ± s.e.m (n=3)
T3 construct: expressed in transfected cells; host or cells: HEK293 (transient)
T3 sequence (Q99685 1-303): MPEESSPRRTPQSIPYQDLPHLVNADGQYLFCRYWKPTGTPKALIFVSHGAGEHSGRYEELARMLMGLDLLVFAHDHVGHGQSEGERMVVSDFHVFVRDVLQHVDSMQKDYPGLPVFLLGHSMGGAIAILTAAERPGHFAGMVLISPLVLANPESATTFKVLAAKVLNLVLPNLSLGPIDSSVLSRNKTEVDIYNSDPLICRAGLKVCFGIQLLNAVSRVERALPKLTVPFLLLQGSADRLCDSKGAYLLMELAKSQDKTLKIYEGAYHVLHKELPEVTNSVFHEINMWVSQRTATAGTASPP
Procedure: as §1

hFAAH = biological target: T4, hFAAH (Homo sapiens, UniProt O00519); assay: FAAH activity, membranes of hFAAH overexpressing COS-7 cells, 3H-anandamide; conditions: read-out: hFAAH Remaining activity % control (mean (range)), n=2
T4 construct: expressed in transfected cells; host or cells: COS-7
T4 sequence (O00519 1-579): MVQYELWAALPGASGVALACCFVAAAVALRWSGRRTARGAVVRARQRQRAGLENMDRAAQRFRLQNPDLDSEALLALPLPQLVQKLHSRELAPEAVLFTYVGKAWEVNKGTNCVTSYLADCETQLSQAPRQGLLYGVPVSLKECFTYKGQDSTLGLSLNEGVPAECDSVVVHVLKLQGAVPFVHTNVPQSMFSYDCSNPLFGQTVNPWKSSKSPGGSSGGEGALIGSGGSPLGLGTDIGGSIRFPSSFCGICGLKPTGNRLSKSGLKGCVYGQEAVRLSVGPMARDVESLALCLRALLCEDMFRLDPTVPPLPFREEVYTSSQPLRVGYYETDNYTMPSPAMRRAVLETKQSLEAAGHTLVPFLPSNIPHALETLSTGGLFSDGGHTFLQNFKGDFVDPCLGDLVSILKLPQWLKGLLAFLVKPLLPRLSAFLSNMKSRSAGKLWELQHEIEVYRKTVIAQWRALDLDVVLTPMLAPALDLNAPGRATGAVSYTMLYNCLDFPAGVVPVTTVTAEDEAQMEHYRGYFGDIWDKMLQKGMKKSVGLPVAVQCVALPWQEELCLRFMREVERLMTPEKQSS
Procedure: as §1

hABHD12 [2] = biological target: T1, hABHD12; assay: LC-MS assay of ABHD12 activity (1-AG utilization / AA formation) in hABHD12-HEK293 lysates; conditions: n = 2, dose-response by LC-MS; for IC50: s.d.
Procedure: The fluorescent glycerol assay was mimicked otherwise but instead of assaying glycerol, utilization of 1-AG and concomitant formation of AA was monitored by LC-MS analysis. […] Enzymatic reaction was stopped by adding 400 µL of cold 11 mM H3PO4 in acetonitrile. 150 µL aliquots were filtered using Captiva 96-well filter plate (0.2 µm, Agilent Technologies, USA) into the Captiva 96-well collection plate (Agilent Technologies, USA) containing 50 µL of 0.1% formic acid in H2O. The collection plate was centrifuged at 4°C for 10 minutes and the samples were analyzed by LC-MS. HPLC system consisted of an Agilent 1200 Series Rapid Resolution LC System (Agilent Technologies, Waldbronn, Germany) with a solvent micro vacuum degasser, a binary pump, a thermostatted column compartment, and an autosampler. The mass analysis was made with an Agilent 6410 Triple Quadrupole MS equipped with an electrospray ionization (ESI) source (Agilent Technologies, Palo Alto, CA, USA). Five microliters of the sample solution were injected onto a reversed-phase HPLC column (Zorbax Eclipse XDB-C18 Rapid Resolution HT 2.1 mm×50 mm, 1.8 µm) (Agilent Technologies, Palo Alto, CA, USA) using an isocratic mobile phase consisting of 0.1% formic acid in a solution of H2O and methanol (20∶80 v/v) delivered at 0.5 mL/min. Column temperature was maintained at 50°C and the autosampler tray temperature was set at 4°C. The following ionization conditions were used for 1-AG: positive ESI mode, drying gas (nitrogen) temperature 300°C, drying gas flow rate 8 L/min, nebulizer pressure 40 psi, and capillary voltage 4000 V. The following ionization conditions were used for AA: negative ESI mode, drying gas (nitrogen) temperature 300°C, drying gas flow rate 8 L/min, nebulizer pressure 40 psi, and capillary voltage 4000 V. Analyte detection was performed using multiple reaction monitoring (MRM) with the following transitions: m/z 379 → 287 for 1-AG and m/z 303 → 303 for AA. Fragmentor voltage and collision energy for 1-AG and AA were 130 V/8 V and 175 V/2 V, respectively. […] In addition, the 2-AG positional isomer is chromatographically separated from 1-AG with retention time 2.1 min, and the peak areas of 1-AG and 2-AG were subsequently combined for all quantitative analyses reported and are thus collectively termed “1-AG”. The calibration range of 0.1–2,000 ng/mL and 0.1–1,000 ng/mL was prepared for monitored 1-AG and AA, respectively. The lower limit of quantification (LLOQ) for both analytes, 1-AG and AA, was 1.0 ng/mL.

CB1R [3] = biological target: T5, CB1R (Rattus norvegicus, UniProt P20272); assay: [35S]GTPγS binding, CB1R agonist activity, rat cerebellar membranes
T5 construct: membranes prepared from brain tissue of 4-week-old male rodents were used; from tissue; host or cells: rat cerebellar membranes
Procedure: (§2) The CB1 and CB2 receptor activity of the selected compounds (10 µM) were measured using the GTPγS binding assay according to the previously described methods, [33].
(§3) For ABPP experiments (Figure 6C) and cannabinoid receptor activity assays (Table S2), membranes prepared from brain tissue of 4-week-old male rodents were used. The animals were obtained from the National Laboratory Animal Centre, University of Eastern Finland. Approval for the harvesting of animal tissue was obtained from the local welfare officer of the University of Eastern Finland.

hCB2R = biological target: T6, hCB2R (Homo sapiens, UniProt P34972); assay: [35S]GTPγS binding, CB2R agonist activity, hCB2R-CHO cell membranes
T6 construct: expressed in transfected cells; host or cells: CHO

CB1R [4] = biological target: T5, CB1R; assay: [35S]GTPγS binding, CB1R antagonist activity, rat cerebellar membranes; conditions: 10 µM
Procedure: as §2, §3

[5] = hABHD12-HEK293 lysates, three independent experiments, read-out: -logIC50±s.e.m. (converted)
[6] = hABHD12-HEK293 lysates, read-out: IC50

T6 sequence (P34972 whole entry): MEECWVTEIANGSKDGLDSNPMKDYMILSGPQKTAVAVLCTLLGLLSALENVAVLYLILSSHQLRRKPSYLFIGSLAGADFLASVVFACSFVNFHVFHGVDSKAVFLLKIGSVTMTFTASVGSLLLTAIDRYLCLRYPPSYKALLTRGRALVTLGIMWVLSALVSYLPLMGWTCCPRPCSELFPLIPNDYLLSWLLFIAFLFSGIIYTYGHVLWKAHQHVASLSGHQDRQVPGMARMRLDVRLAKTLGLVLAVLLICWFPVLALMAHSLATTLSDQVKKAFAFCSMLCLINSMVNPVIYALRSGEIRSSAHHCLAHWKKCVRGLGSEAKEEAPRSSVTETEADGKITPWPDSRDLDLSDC
T5 sequence (P20272 whole entry): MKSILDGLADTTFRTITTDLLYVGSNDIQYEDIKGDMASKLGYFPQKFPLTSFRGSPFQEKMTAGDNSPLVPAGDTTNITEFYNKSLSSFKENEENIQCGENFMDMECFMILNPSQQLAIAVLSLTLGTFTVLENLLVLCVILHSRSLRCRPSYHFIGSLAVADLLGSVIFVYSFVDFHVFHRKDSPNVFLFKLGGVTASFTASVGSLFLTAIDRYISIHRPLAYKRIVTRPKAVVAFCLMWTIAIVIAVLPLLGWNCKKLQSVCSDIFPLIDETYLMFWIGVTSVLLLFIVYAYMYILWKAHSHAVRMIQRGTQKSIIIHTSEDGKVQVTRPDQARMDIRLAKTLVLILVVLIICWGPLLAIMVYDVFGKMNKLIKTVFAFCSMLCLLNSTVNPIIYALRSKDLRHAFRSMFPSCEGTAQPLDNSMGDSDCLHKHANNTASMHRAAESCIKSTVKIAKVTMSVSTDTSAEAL

C=C(C)[C@@H]1CC[C@]2(C(=O)O)CC[C@]3(C)[C@H](CC[C@@H]4[C@@]5(C)CC6OC(C)(C)OC6C(C)(C)[C@@H]5CC[C@]43C)[C@@H]12 (some centres unmarked) [Compound 31]
IC50 (hABHD12 [1]; [5]): 7.41 µM
IC50 (hABHD12 [1]; [6]): 7.5 µM
Emax (hABHD12 [1]; hABHD12-HEK293 lysates): 90%
remaining activity at 10 µM (hABHD6): 93.2 ± 3%
remaining activity at 10 µM (hMAGL): 82.7 ± 4.1%
remaining activity at 10 µM (hFAAH): 91%

C=C(C)[C@@H]1CC[C@]2(C=NO)CC[C@]3(C)[C@H](CC[C@@H]4[C@@]5(C)CC[C@H](O)C(C)(C)[C@@H]5CC[C@]43C)[C@@H]12 [Compound 24]
IC50 (hABHD12 [1]; [6]): 6.5 µM
Emax (hABHD12 [1]; hABHD12-HEK293 lysates): 61%
remaining activity at 10 µM (hABHD6): 92.4 ± 3.9%
remaining activity at 10 µM (hMAGL): 86 ± 4.3%
remaining activity at 10 µM (hFAAH): 95%

C=C(C)[C@@H]1CC[C@]2(C=O)CC[C@]3(C)[C@H](CC[C@@H]4[C@@]5(C)CCC(=O)C(C)(C)[C@@H]5CC[C@]43C)[C@@H]12 [Compound 17]
IC50 (hABHD12 [1]; [5]): 4.47 µM
IC50 (hABHD12 [1]; [6]): 4.4 µM
Emax (hABHD12 [1]; hABHD12-HEK293 lysates): 57%
remaining activity at 10 µM (hABHD6): 93.6 ± 3.8%
remaining activity at 10 µM (hMAGL): 84.1 ± 4.8%
remaining activity at 10 µM (hFAAH): 95%

C=C(C)[C@@H]1CC[C@]2(C(=O)O)CC[C@]3(C)[C@H](CC[C@@H]4[C@@]5(C)CC[C@H](O)C(C)(C)[C@@H]5CC[C@]43C)[C@@H]12 [Compound 1, Betulinic acid, reference compound]
IC50 (hABHD12 [2]): 2.51 µM
remaining activity at 10 µM (hABHD6): ~70%
remaining activity at 10 µM (hMAGL): 76.7 ± 0.1%
remaining activity at 10 µM (hFAAH): 83%
CB1R agonist activity [35S]GTPγS binding % Basal (Mean (range), n=2) (CB1R [3]; 10 µM): 91 (87-96) % Basal
CB2R agonist activity [35S]GTPγS binding % Basal (Mean (range), n=2) (hCB2R; 10 µM): 132 (106-158) % Basal
CB1R antagonist activity [35S]GTPγS binding % HU210-evoked response (Mean (range), n=2) (CB1R [4]): 99 (98-99) % HU210-evoked response

CCCCCCC(C)(C)c1cc(O)c2c(c1)OC(C)(C)[C@@H]1CC=C(CO)C[C@@H]21 [HU210]
CB1R agonist activity [35S]GTPγS binding % basal ± SEM, n > 3 (CB1R [3]; reference compound at 1 µM): 430 ± 36 % Basal
CB2R agonist activity [35S]GTPγS binding % Basal (Mean (range), n=2) (hCB2R; 10 nM): 354 (348-361) % Basal

C=C(C)[C@@H]1CC[C@]2(C(=O)O)CC[C@]3(C)[C@H](CC[C@@H]4[C@@]5(C)CCC(=O)C(C)(C)[C@@H]5CC[C@]43C)[C@@H]12 [Compound 18]
max inhibition (hABHD12 [2]): 100%
IC50 (hABHD12 [2]): 3.31 µM

C=C(C)[C@@H]1CC[C@]2(C(=O)O)CC[C@]3(C)[C@H](CC[C@@H]4[C@@]5(C)CCC(=O)NC(C)(C)[C@@H]5CC[C@]43C)[C@@H]12 [Compound 36]
IC50 (hABHD12 [1]; [6]): 9.1 µM
Emax (hABHD12 [1]; hABHD12-HEK293 lysates): 88%
remaining activity at 10 µM (hABHD6): 80 ± 4.4%
remaining activity at 10 µM (hMAGL): 54.1 ± 4.7%
remaining activity at 10 µM (hFAAH): 88%

C=C(C)[C@@H]1CC[C@]2(C=NO)CC[C@]3(C)[C@H](CC[C@@H]4[C@@]5(C)CCC(=NO)C(C)(C)[C@@H]5CC[C@]43C)[C@@H]12 [Compound 25]
max inhibition (hABHD12 [2]): 76%
IC50 (hABHD12 [2]): 3.98 µM
remaining activity at 10 µM (hABHD6): 103 ± 2.3%
remaining activity at 10 µM (hMAGL): 88.7 ± 4.2%
remaining activity at 10 µM (hFAAH): 97%

C[C@H]1[C@H](C)CC[C@]2(C(=O)O)CC[C@]3(C)C(=CC[C@@H]4[C@@]5(C)CC[C@H](O)C(C)(C)[C@@H]5CC[C@]43C)[C@H]12 [Compound 4, Ursolic acid, reference compound]
hABHD12 inhibitory activity (in words) (hABHD12 [1]): selectively inhibit ABHD12
remaining activity at 10 µM (hABHD12 [1]; hABHD12-HEK293 lysates, 10 µM, NI = no inhibition, read-out: Remaining activity at 10 µM % ± s.e.m.): ~30%
IC50 (hABHD12 [2]): 1.82 µM
effect on ABHD6 activity (hABHD6; preliminary screening): negligible effect
effect on MAGL activity (hMAGL; preliminary screening): negligible effect

SR144528
CB2R agonist activity [35S]GTPγS binding % Basal (Mean (range), n=2) (hCB2R; 1 µM): 68 (60-76) % Basal

Source: publication PMC4045134, “Discovery of Triterpenoids as Reversible Inhibitors of α/β-hydrolase Domain Containing 12 (ABHD12)” (PLoS ONE, 2014)
